This is an account of results in PMC4795174 (Biochemistry, 2015).

The experiment addresses BlaC (β-lactamase) (Mycobacterium tuberculosis, UniProt P9WKD3). Format: biochemical. Conditions: read-out: KI.

Sequence of BlaC (β-lactamase) (P9WKD3 41-307): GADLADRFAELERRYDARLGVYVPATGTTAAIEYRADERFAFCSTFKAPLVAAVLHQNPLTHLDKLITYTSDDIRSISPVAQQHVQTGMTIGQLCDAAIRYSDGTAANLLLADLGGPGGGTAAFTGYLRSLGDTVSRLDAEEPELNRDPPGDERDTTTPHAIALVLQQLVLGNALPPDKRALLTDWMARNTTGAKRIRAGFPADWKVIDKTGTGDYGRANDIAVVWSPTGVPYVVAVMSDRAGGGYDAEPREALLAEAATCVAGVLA

Regarding `O=C(O)[C@H]1/C(=C/CO)O[C@@H]2CC(=O)N21` [clavulanate], the KI (inactivation) came out at 6.3 µM.
